According to patent US4742053A, “3-Isoquinoliniomethyl cephalosporin derivatives” (Banyu Pharmaceutical Co., Ltd., priority 1984, dated 1988):
In brackets after ≈: the same amount, converted by molar mass.

What was measured:
Format in all cases: cell-based
[1] = tested on: bacteria; test: antibacterial spectrum of the compound of Example 6; conditions: compared with the compound of Example 3 (E)
[2] = tested on: E. coli NIHJ; test: bioautography (TLC); conditions: TLC Merck silica gel F254, E. coli NIHJ
Method: 2.5 mg of the compound obtained in Example 4 (C) was suspended in 0.5 ml of methanol, and 35 μl of concentrated aqueous ammonia was added thereto. The mixture was left to stand at room temperature for 1 hour. […] The fraction of this peak was separated and freeze-dried to obtain 1 mg of the above identified compound.

[3] = tested on: A. calcoaceticus No. 14; test: MIC by agar plate dilution method; conditions: Acinetobacter calcoaceticus, NO.14, A. calcoaceticus No. 14; 10^6 CFU/ml; read-out: Minimum Inhibitory Concentration
Procedure, shortened: (§1)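 Plate dilution in agar (Sensitivity Disk Agar medium), 10^6 CFU/ml inoculum, MIC in μg/ml.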

[4] = tested on: E. coli CSH2; test: MIC by agar plate dilution method; conditions: Escherichia coli, 10^6 CFU/ml, read-out: Minimum Inhibitory Concentration
Procedure, shortened: as §1

[5] = tested on: P. mirabilis JY10; test: MIC by agar plate dilution method; conditions: Proteus mirabilis; P. mirabilis JY10; 10^6 CFU/ml; read-out: Minimum Inhibitory Concentration
Procedure, shortened: as §1

[6] = tested on: P. vulgaris OB1043; test: MIC by agar plate dilution method; conditions: Proteus vulgaris, OB1043, P. vulgaris OB1043; 10^6 CFU/ml; read-out: Minimum Inhibitory Concentration
Procedure, shortened: as §1

[7] = tested on: E. coli W3630/Rms212; test: MIC by agar plate dilution method; conditions: Escherichia coli, W3630/RMS212, read-out: Minimum Inhibitory Concentration, E. coli W3630/Rms212; 10^6 CFU/ml
Procedure, shortened: (§2)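 Agar dilution, Sensitivity Disk Agar; inoculum 10^6 CFU/ml; MIC reported as μg/ml; cefotaxime and ceftazidime run as comparators.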

[8] = tested on: P. vulgaris No. 33; test: MIC by agar plate dilution method; conditions: Proteus vulgaris; P. vulgaris No. 33; 10^6 CFU/ml; read-out: Minimum Inhibitory Concentration
Procedure, shortened: as §1

[9] = tested on: E. cloaceae Nek 39; test: MIC by agar plate dilution method; conditions: E. cloaceae Nek 39; 10^6 CFU/ml; read-out: Minimum Inhibitory Concentration
Procedure, shortened: as §1

[10] = tested on: S. marcescens No. 16-2; test: MIC by agar plate dilution method; conditions: Serratia marcescens, NO.162; S. marcescens No. 16-2; 10^6 CFU/ml; read-out: Minimum Inhibitory Concentration
Procedure, shortened: as §1

[11] = tested on: P. aeruginosa AK109; test: MIC by agar plate dilution method; conditions: Pseudomonas aeruginosa, AK109, P. aeruginosa AK109; 10^6 CFU/ml; read-out: Minimum Inhibitory Concentration
Procedure, shortened: as §1

[12] = tested on: E. coli CSH; test: MIC by agar plate dilution method; conditions: Escherichia coli, 10^6 CFU/ml, read-out: Minimum Inhibitory Concentration
Procedure, shortened: as §1

[13] = tested on: E. coli NIHJJC-2; test: MIC by agar plate dilution method; conditions: Escherichia coli, NIHJJC2, E. coli NIHJJC-2; 10^6 CFU/ml; read-out: Minimum Inhibitory Concentration
Procedure, shortened: as §1

[14] = tested on: E. coli ML1410/Rte16; test: MIC by agar plate dilution method; conditions: Escherichia coli, ML1410/RTE16, read-out: Minimum Inhibitory Concentration, E. coli ML1410/Rte16; 10^6 CFU/ml
Procedure, shortened: as §2

[15] = tested on: E. coli C/Rms149; test: MIC by agar plate dilution method; conditions: Escherichia coli, read-out: Minimum Inhibitory Concentration, E. coli C/Rms149; 10^6 CFU/ml
Procedure, shortened: as §2

[16] = tested on: S. aureus JS-1; test: MIC by agar plate dilution method; conditions: Staphylococcus aureus, JS1; S. aureus JS-1; 10^6 CFU/ml; read-out: Minimum Inhibitory Concentration
Procedure, shortened: as §1

[17] = tested on: S. aureus NIHJJC-1; test: MIC by agar plate dilution method; conditions: Staphylococcus aureus, NIHJJC1, read-out: Minimum Inhibitory Concentration
Procedure, shortened: as §1

[18] = tested on: E. coli W3630/Rms213; test: MIC by agar plate dilution method; conditions: Escherichia coli, W3630/RMS213, read-out: Minimum Inhibitory Concentration, E. coli W3630/Rms213; 10^6 CFU/ml
Procedure, shortened: as §2

[19] = tested on: C. freundii No. 7; test: MIC by agar plate dilution method; conditions: Citrobacter freundii; C. freundii No. 7; 10^6 CFU/ml; read-out: Minimum Inhibitory Concentration
Procedure, shortened: as §1

[20] = tested on: K. pneumoniae No. 42; test: MIC by agar plate dilution method; conditions: Klebsiella pneumoniae, NO.42, read-out: Minimum Inhibitory Concentration
Procedure, shortened: as §1

[21] = tested on: P. aeruginosa AKR17; test: MIC by agar plate dilution method; conditions: Pseudomonas aeruginosa, AKR17, P. aeruginosa AKR17; 10^6 CFU/ml; read-out: Minimum Inhibitory Concentration
Procedure, shortened: as §1

SMILES: CON=C(C(=O)NC1C(=O)N2C(C(=O)[O-])=C(C[N+]3(C)CCc4cc(O)c(O)cc4C3)CSC12)c1csc(N)n1 (stereo not drawn) [Ex. 3-E, 7-[(Z)-2-(2-aminothiazol-4-yl)-2-methoxyiminoacetamido]-3-(6,7-dihydroxy-2-methyl-1,2,3,4-tetrahydro-2-isoquinolinium)methyl-3-cephem-4-carboxylate]
- antibacterial spectrum [1]: exhibited the same antibacterial spectrum as the compound of Example 3 (E)
- antibacterial spot in bioautography [2]: shows a spot exhibiting antibacterial activities at Rf=0.1
- MIC [3]: 0.39 µg/mL (≈ 0.679 µM)
- MIC [4]: 0.1 µg/mL (≈ 0.174 µM)
- MIC [5]: 0.78 µg/mL (≈ 1.36 µM)
- MIC [6]: 0.78 µg/mL (≈ 1.36 µM)
- MIC [7]: 0.05 µg/mL (≈ 0.087 µM)
- MIC [8]: 0.2 µg/mL (≈ 0.348 µM)
- MIC [9]: 0.1 µg/mL (≈ 0.174 µM)
- MIC [10]: 12.5 µg/mL (≈ 21.8 µM)
- MIC [11]: 0.78 µg/mL (≈ 1.36 µM)
- MIC [12]: 0.78 µg/mL (≈ 1.36 µM)
- MIC [13]: 0.1 µg/mL (≈ 0.174 µM)
- MIC [14]: 0.1 µg/mL (≈ 0.174 µM)
- MIC [15]: 0.1 µg/mL (≈ 0.174 µM)
- MIC [16]: 6.25 µg/mL (≈ 10.9 µM)
- MIC [17]: 1.56 µg/mL (≈ 2.71 µM)
- MIC [18]: 1.56 µg/mL (≈ 2.71 µM)
- MIC [19]: 3.12 µg/mL (≈ 5.43 µM)
- MIC [20]: 0.39 µg/mL (≈ 0.679 µM)
- MIC [21]: 3.12 µg/mL (≈ 5.43 µM)
